Measurements as given in paper PMC5896778 (Developmental cell, 2018).

Columns and labels:
[1] = test system: CDK activity and EB3 abundance in HCMV AD169-infected NHDFs; details: 3 µM
[2] = test system: MT formation at Golgi fragments in HCMV-infected NHDFs; assay: Nocodazole washout assay, MT nucleation; assay type: cell-based, human; details: 10µM nocodazole for 8h, mock or AD169-infected NHDFs, 3d

| SMILES | effect on IE2 expression ([1]; AD169 MOI 3, WB) | CDK substrate phosphorylation and increases in EB3 abundance by 3d.p.i. ([1]; daily inhibitor replenishment, AD169 MOI 3, 3d.p.i.) | effect on HCMV-induced CDK activation (pan-CDK1 substrate antibody) ([1]; replaced every 24h, AD169 MOI 3, WB) | effect on HCMV-induced increases in EB3 ([1]; replaced every 24h, AD169 MOI 3, WB, 1 and 2 d.p.i.) | effect on MTs, Golgi and AC structures [2] |
| --- | --- | --- | --- | --- | --- |
| Nc1nc(Nc2ccc(S(N)(=O)=O)cc2)nn1C(=O)c1c(F)cccc1F [JNJ-7706621] | modestly affected IE2 expression | insensitive | suppressed HCMV-induced CDK activation | prevented increases in EB3 at 1 and 2 d.p.i. | – |
| COC(=O)Nc1nc2ccc(C(=O)c3cccs3)cc2[nH]1 [nocodazole] | – | – | – | – | depolymerized MTs and dispersed Golgi and AC structures |
